Experimental data reported in ChEMBL document CHEMBL6109129, “Discovery of Conformationally Constrained Dihydro Benzo-Indole Derivatives as Metallo-β-Lactamase Inhibitors to Tackle Multidrug-Resistant Bacterial Infections” (J Med Chem, 2025).
Values after ≈ are worked out from the molar mass of the structure shown. Active and inactive are the calls of the source. The calls are words filed in the database; no cut-off is given here.

Legend:
[1] = Inhibition of IMP-1 (unknown origin) using FC5 as substrate preincubated for 10 mins followed by substrate addition and measured immediately by fluorescence based analysis; design: species or system Bacteria
[2] = Inhibition of VIM-1 (unknown origin) using FC5 as substrate preincubated for 10 mins followed by substrate addition and measured immediately by fluorescence based analysis; design: species or system Bacteria
[3] = target: Metallo-beta-lactamase type 2 (Bacteria, UniProt C7C422); test: Inhibition of N-terminal truncated NDM1 (1 to 49N residues) (unknown origin) extracted from Escherichia coli BL21(DE3) cells using FC5 as substrate preincubated for 10 mins followed by substrate addition and measured immediately by fluorescence based analysis
Metallo-beta-lactamase type 2, sequence (C7C422 whole entry, the tested form may be a part): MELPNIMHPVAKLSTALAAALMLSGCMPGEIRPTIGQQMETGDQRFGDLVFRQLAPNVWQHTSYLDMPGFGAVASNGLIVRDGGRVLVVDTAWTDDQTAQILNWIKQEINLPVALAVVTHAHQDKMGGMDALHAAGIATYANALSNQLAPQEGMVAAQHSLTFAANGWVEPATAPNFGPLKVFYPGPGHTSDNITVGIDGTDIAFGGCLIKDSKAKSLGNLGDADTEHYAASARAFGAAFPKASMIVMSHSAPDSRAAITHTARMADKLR

[4] = target: Metallo-beta-lactamase type 2 (Bacteria) (UniProt C7C422); test: Induction of thermal stabilization of NDM-1 (unknown origin) assessed as melting temperature at 6.25 uM by differential scanning fluorimetry analysis
Metallo-beta-lactamase type 2 (Bacteria), sequence (C7C422 whole entry): as the sequence (C7C422 whole entry, the tested form may be a part) above

Klebsiella pneumoniae [5] = test: Synergistic antibacterial activity against Klebsiella pneumoniae ATCC BAA 2146 expressing NDM-1 measured after 16 to 18 hrs in presence of meropenem by microbial dilution method; format: functional, organism-based; settings: time 16-18 hrs
[6] = target: Metallo-beta-lactamase type 2 (Bacteria) (UniProt C7C422); test: Induction of thermal stabilization of NDM-1 (unknown origin) assessed as melting temperature at 12.5 uM by differential scanning fluorimetry analysis
[7] = target: Metallo-beta-lactamase type 2 (Bacteria) (UniProt C7C422); test: Induction of thermal stabilization of NDM-1 (unknown origin) assessed as increase in melting temperature by differential scanning fluorimetry analysis; settings: dose 3.12-50 µM
[8] = target: Metallo-beta-lactamase type 2 (Bacteria) (UniProt C7C422); test: Induction of thermal stabilization of NDM-1 (unknown origin) assessed as melting temperature at 25 uM by differential scanning fluorimetry analysis
[9] = target: Metallo-beta-lactamase type 2 (Bacteria) (UniProt C7C422); test: Induction of thermal stabilization of NDM-1 (unknown origin) assessed as melting temperature at 50 uM by differential scanning fluorimetry analysis
Klebsiella pneumoniae [10] = test: Synergistic antibacterial activity against Klebsiella pneumoniae ATCC BAA 2146 expressing NDM-1 measured after 16 to 18 hrs in presence of imipenem by microbial dilution method; format: functional, organism-based; settings: time 16-18 hrs
[11] = target: Metallo-beta-lactamase type 2 (Bacteria) (UniProt C7C422); test: Induction of thermal stabilization of NDM-1 (unknown origin) assessed as melting temperature at 3.12 uM by differential scanning fluorimetry analysis
Escherichia coli [12] = test: microbe, parasite or virus in culture; settings: 565988
Description: Antibacterial activity against carbapenem-resistant Escherichia coli 565988 assessed as reduction in microbial growth measured after 16 to 18 hrs by microbial dilution method

Enterobacter cloacae = test: Antibacterial activity against carbapenem-resistant Enterobacter cloacae BAA-2468 assessed as reduction in microbial growth measured after 16 to 18 hrs by microbial dilution method; format: functional; settings: time 16-18 hrs
Klebsiella pneumoniae [13] = test: Antibacterial activity against carbapenem-resistant Klebsiella pneumoniae 565345 assessed as reduction in microbial growth measured after 16 to 18 hrs by microbial dilution method; format: functional; settings: time 16-18 hrs
Escherichia coli [14] = test: Antibacterial activity against carbapenem-resistant Escherichia coli BAA-2469 assessed as reduction in microbial growth measured after 16 to 18 hrs by microbial dilution method; format: functional; settings: time 16-18 hrs
Klebsiella pneumoniae [15] = test: Antibacterial activity against carbapenem-resistant Klebsiella pneumoniae 538961 assessed as reduction in microbial growth measured after 16 to 18 hrs by microbial dilution method; format: functional; settings: time 16-18 hrs
Klebsiella pneumoniae [16] = test: Anti-infective activity against carbapenem-resistant Klebsiella pneumoniae ATCC BAA 2146 expressing NDM-1 infected in neutropenic female BALB/c mouse deep thigh infection model assessed as reduction in bacterial count at 20 mg/kg, sc pre-infected with bacteria for 2 hrs followed by compound addition and measured after 26 hrs; format: functional
Escherichia coli [17] = test: Antibacterial activity against carbapenem-resistant Escherichia coli BAA-2471 assessed as reduction in microbial growth measured after 16 to 18 hrs by microbial dilution method; format: functional; settings: time 16-18 hrs
Escherichia coli [18] = test: Antibacterial activity against carbapenem-resistant Escherichia coli 571307 assessed as reduction in microbial growth measured after 16 to 18 hrs by microbial dilution method; format: functional; settings: time 16-18 hrs
Klebsiella pneumoniae [19] = test: Antibacterial activity against carbapenem-resistant Klebsiella pneumoniae BAA-2473 assessed as reduction in microbial growth measured after 16 to 18 hrs by microbial dilution method; format: functional; settings: time 16-18 hrs
Escherichia coli [20] = test: microbe, parasite or virus in culture; settings: 567975
Description: Antibacterial activity against carbapenem-resistant Escherichia coli 567975 assessed as reduction in microbial growth measured after 16 to 18 hrs by microbial dilution method

Klebsiella pneumoniae [21] = test: Antibacterial activity against carbapenem-resistant Klebsiella pneumoniae 571278 assessed as reduction in microbial growth measured after 16 to 18 hrs by microbial dilution method; format: functional; settings: time 16-18 hrs
Klebsiella pneumoniae [22] = test: Antibacterial activity against carbapenem-resistant Klebsiella pneumoniae 552439 assessed as reduction in microbial growth measured after 16 to 18 hrs by microbial dilution method; format: functional; settings: time 16-18 hrs
[23] = tested on: Klebsiella pneumoniae subsp. pneumoniae; test: Antibacterial activity against carbapenem-resistant Klebsiella pneumoniae subsp. pneumoniae BAA-2472 assessed as reduction in microbial growth measured after 16 to 18 hrs by microbial dilution method; format: functional; settings: time 16-18 hrs
Escherichia coli [24] = test: microbe, parasite or virus in culture; settings: 541588
Description: Antibacterial activity against carbapenem-resistant Escherichia coli 541588 assessed as reduction in microbial growth measured after 16 to 18 hrs by microbial dilution method

[25] = tested on: Klebsiella pneumoniae subsp. pneumoniae; test: Antibacterial activity against carbapenem-resistant Klebsiella pneumoniae subsp. pneumoniae BAA-2470 assessed as reduction in microbial growth measured after 16 to 18 hrs by microbial dilution method; format: functional; settings: time 16-18 hrs

Row | SMILES | IC50 [1] | IC50 [2] | IC50 [3] | other results
1 | O=C(O)c1[nH]c2c(c1-c1cncc(F)c1)CCc1ccccc1-2 | 4100 nM | 2100 nM | 62 nM | 
2 | O=C(O)c1ccccn1 [2-PICOLINIC ACID] | > 200000 nM | > 200000 nM | 13700 nM | 
3 | Cc1cc(Cl)cc(-c2c(C(=O)O)[nH]c3c2CCc2ccccc2-3)c1 | 320 nM | 557 nM |  | 
4 | O=C(O)c1[nH]c2c(c1-c1ccc(F)c(F)c1)CCc1ccccc1-2 | 6400 nM | 1100 nM | 2.9 nM | 
5 | O=C(O)c1[nH]c2c(c1-c1cccc(Cl)c1)CCc1ccccc1-2 | 350 nM | 468 nM | 2.5 nM | 
6 | O=C(O)c1[nH]c2c(c1-c1cc(F)cc(Cl)c1)CCc1ccccc1-2 | 149 nM | 48 nM | 1.9 nM | ΔTm [4]: 13 °C; Activity (Klebsiella pneumoniae [5]): Active; Tm [6]: 15 °C; Activity [7]: Active; Tm [8]: 16 °C; Tm [9]: 17 °C; Activity (Klebsiella pneumoniae [10]): Active; Tm [11]: 9 °C
7 | COc1cc(F)cc(-c2c(C(=O)O)[nH]c3c2CCc2ccccc2-3)c1 | 15000 nM | 3500 nM | 6.8 nM | 
8 | O=C(O)c1[nH]c2c(c1-c1cccc(F)c1)CCc1ccccc1-2 | 3000 nM | 408 nM | 8.1 nM | 
9 | O=C(O)c1[nH]c2c(c1-c1cccc(Cl)c1Cl)CCc1ccccc1-2 | 22000 nM |  | 15 nM | 
10 | C[C@@H](O)[C@H]1C(=O)N2C(C(=O)O)=C(SCCNC=N)C[C@H]12 [IMIPENEM ANHYDROUS] |  |  |  | MIC (Escherichia coli [12]): 8 µg/mL (≈ 26.7 µM); MIC (Enterobacter cloacae): > 64 µg/mL; MIC (Klebsiella pneumoniae [13]): 32 µg/mL; MIC (Escherichia coli [14]): 64 µg/mL; MIC (Klebsiella pneumoniae [15]): 64 µg/mL; Activity (Klebsiella pneumoniae [16]): ~1.15 log10CFU/ml; MIC (Escherichia coli [17]): 64 µg/mL; MIC (Escherichia coli [18]): 32 µg/mL; MIC (Klebsiella pneumoniae [19]): > 64 µg/mL; MIC (Escherichia coli [20]): 16 µg/mL (≈ 53.4 µM); MIC (Klebsiella pneumoniae [21]): 16 µg/mL; MIC (Klebsiella pneumoniae [22]): 32 µg/mL; MIC [23]: > 64 µg/mL; MIC (Escherichia coli [24]): 8 µg/mL (≈ 26.7 µM); MIC [25]: 16 µg/mL
11 | O=C(O)c1[nH]c2c(c1-c1cc(Cl)c(Cl)c(Cl)c1)CCc1ccccc1-2 | 1200 nM | 2200 nM |  | 
12 | O=C(O)c1[nH]c2c(c1-c1cccc(F)c1F)CCc1ccccc1-2 | 2400 nM | 1900 nM | 268 nM | 
13 | Cc1ccc(-c2c(C(=O)O)[nH]c3c2CCc2ccccc2-3)c(F)c1 | 4600 nM | 1500 nM | 7.7 nM | 
14 | O=C(O)c1[nH]c2c(c1-c1ccccc1Cl)CCc1ccccc1-2 | 990 nM | 217 nM | 3.1 nM | 
15 | O=C(O)c1[nH]c2c(c1-c1cncc(Cl)c1)CCc1ccccc1-2 | 1500 nM | 197 nM | 2.3 nM | 
16 | O=C(O)c1[nH]c2c(c1-c1ccccc1)CCc1ccccc1-2 | 8500 nM | 3700 nM | 111 nM | 
17 | O=C(O)c1[nH]c2c(c1-c1ccc(Cl)cc1)CCc1ccccc1-2 | 2100 nM | 1700 nM | 3.1 nM | 

Row | SMILES | IC50 [1] | IC50 [2] | IC50 [3] | other results
18 | O=C(O)c1[nH]c2c(c1-c1cc(F)cc(F)c1)CCc1ccccc1-2 | 5600 nM | 581 nM | 47 nM | 
19 | C[C@@H](O)[C@H]1C(=O)N2C(C(=O)O)=C(S[C@@H]3CN[C@H](C(=O)N(C)C)C3)[C@H](C)[C@H]12 [MEROPENEM] |  |  |  | MIC (Escherichia coli [12]): 64 µg/mL (≈ 167 µM); MIC (Enterobacter cloacae): > 64 µg/mL; MIC (Klebsiella pneumoniae [13]): 64 µg/mL; MIC (Escherichia coli [14]): 64 µg/mL; MIC (Klebsiella pneumoniae [15]): > 64 µg/mL; MIC (Escherichia coli [17]): > 64 µg/mL; MIC (Escherichia coli [18]): 64 µg/mL; MIC (Klebsiella pneumoniae [19]): > 64 µg/mL; MIC (Escherichia coli [20]): 64 µg/mL (≈ 167 µM); MIC (Klebsiella pneumoniae [21]): 64 µg/mL; MIC (Klebsiella pneumoniae [22]): > 64 µg/mL; MIC [23]: > 64 µg/mL; MIC (Escherichia coli [24]): 64 µg/mL (≈ 167 µM); MIC [25]: 32 µg/mL
20 | COc1ccc(F)cc1-c1c(C(=O)O)[nH]c2c1CCc1ccccc1-2 | 380 nM | 268 nM | 7.5 nM | 
21 | COc1cc(Cl)cc(-c2c(C(=O)O)[nH]c3c2CCc2ccccc2-3)c1 | 303 nM | 438 nM |  | 
22 | O=C(O)c1[nH]c2c(c1-c1ccc(Cl)cc1Cl)CCc1ccccc1-2 | 9800 nM | 427 nM | 2 nM | 
23 | Cc1cc(C(=O)O)[nH]c1-c1ccccc1 | 44000 nM | 96000 nM | 10600 nM | 
24 | COc1cc(OC)cc(-c2c(C(=O)O)[nH]c3c2CCc2ccccc2-3)c1 | 914 nM | 308 nM | 5 nM | 
25 | O=C(O)c1[nH]c2c(c1-c1ccncc1)CCc1ccccc1-2 | 14000 nM | 2600 nM | 71 nM | 
26 | NCCN[C@H]1CC[C@H](CC(=O)N[C@H]2Cc3cccc(C(=O)O)c3OB2O)CC1 | 38000 nM | 104 nM |  | 
27 | O=C(O)c1[nH]c2c(c1-c1ccccc1F)CCc1ccccc1-2 | 2300 nM | 613 nM | 58 nM | 
28 | Cc1cc(C)cc(-c2c(C(=O)O)[nH]c3c2CCc2ccccc2-3)c1 | 1200 nM | 330 nM | 4.7 nM | 
29 | COc1ccccc1-c1c(C(=O)O)[nH]c2c1CCc1ccccc1-2 | 3000 nM | 1000 nM | 188 nM | 
30 | CC(C)(C)c1ccc(-c2c(C(=O)O)[nH]c3c2CCc2ccccc2-3)cc1 | 8500 nM | 797 nM | 15 nM | 
31 | O=C(O)c1cc2c([nH]1)-c1ccccc1CC2 | 23000 nM | 7000 nM | 8200 nM | 
32 | COc1ccc(-c2c(C(=O)O)[nH]c3c2CCc2ccccc2-3)cc1 |  | 34000 nM | 905 nM | 
33 | O=C(O)c1[nH]c2c(c1-c1cc(Cl)cc(Cl)c1)CCc1ccccc1-2 | 428 nM | 34 nM | 8 nM | ΔTm [4]: 1 °C; Activity (Klebsiella pneumoniae [5]): Active; Tm [6]: 8 °C; Activity [7]: Active; Tm [8]: 11 °C; Tm [9]: 14 °C; Activity (Klebsiella pneumoniae [10]): Active
34 | COc1cc(F)ccc1-c1c(C(=O)O)[nH]c2c1CCc1ccccc1-2 | 1700 nM | 580 nM | 23.6 nM | 
